According to ChEMBL document CHEMBL1130620, “New taxanes as highly efficient reversal agents for multidrug resistance in cancer cells” (Bioorg Med Chem Lett, 1998):

Assays:
MCF7R [1] = assay: Cytotoxicity was evaluated at 1 uM concentration in MCF7-R cell line when co-administered with Paclitaxel; format: functional, cell-based; settings: Homo sapiens
MCF7R [2] = assay: Compound was evaluated for multi-drug resistance (MDR) reversal at 1 uM concentration in MCF7-R cell line when co-administered with Paclitaxel; format: functional, Homo sapiens
MCF7R [3] = assay: Compound was evaluated for multi-drug resistance (MDR) reversal at 3 uM concentration in MCF7-R cell line when co-administered with Paclitaxel; format: functional, Homo sapiens
MCF7R [4] = assay: Cytotoxicity was evaluated at 3 uM concentration in MCF7-R cell line when co-administered with Paclitaxel; format: functional, cell-based; settings: Homo sapiens
MDA-MB-435 [5] = assay: Compound was evaluated for multi-drug resistance (MDR) reversal at 0.1 uM concentration in MDA 435/LCC6-MDR cell line when co-administered with Paclitaxel; format: functional, Homo sapiens
MDA-MB-435 [6] = assay: Cytotoxicity was evaluated at 0.1 uM concentration in MDA 435/LCC6-MDR cell line when co-administered with Paclitaxel; format: functional, cell-based; settings: Homo sapiens
MDA-MB-435 [7] = assay: Cytotoxicity was evaluated at 3 uM concentration in MDA 435/LCC6-MDR cell line when co-administered with Paclitaxel; format: functional, cell-based; settings: Homo sapiens
MDA-MB-435 [8] = assay: Compound was evaluated for multi-drug resistance (MDR) reversal at 3 uM concentration in MDA 435/LCC6-MDR cell line when co-administered with Paclitaxel; format: functional, Homo sapiens
MCF7R [9] = assay: Compound was evaluated for multi-drug resistance (MDR) reversal in MCF7-R cell line; format: functional, Homo sapiens
MDA-MB-435 [10] = assay: Compound was evaluated for multi-drug resistance (MDR) reversal in MDA 435/LCC6-MDR cell line; format: functional, Homo sapiens
MCF7R [11] = assay: Cytotoxicity was evaluated in MCF7-R cell line; format: functional, cell-based; settings: Homo sapiens
MDA-MB-435 [12] = assay: Cytotoxicity was evaluated in MDA 435/LCC6-MDR cell line; format: functional, cell-based; settings: Homo sapiens
MDA-MB-435 [13] = assay: Compound was evaluated for multi-drug resistance (MDR) reversal at 1 uM concentration in MDA 435/LCC6-MDR cell line when co-administered with Paclitaxel; format: functional, Homo sapiens
MDA-MB-435 [14] = assay: Cytotoxicity was evaluated at 1 uM concentration in MDA 435/LCC6-MDR cell line when co-administered with Paclitaxel; format: functional, cell-based; settings: Homo sapiens

`CC(=O)O[C@H]1C(=O)[C@]2(C)[C@@H](OC(=O)c3ccc4ccccc4c3)C[C@H]3OC[C@@]3(OC(C)=O)[C@H]2[C@H](OC(=O)c2ccccc2)[C@]2(O)C[C@H](O)C(C)=C1C2(C)C` was tested, and the IC50 (MCF7R [1]) was 21 nM.

`CC(=O)O[C@H]1C(=O)[C@]2(C)[C@@H](OC(=O)CCc3ccc4ccccc4c3)C[C@H]3OC[C@@]3(OC(C)=O)[C@H]2[C@H](OC(=O)c2ccccc2)[C@]2(O)C[C@H](O)C(C)=C1C2(C)C` showed a Reduction (MCF7R [2]) of 96% and an IC50 (MCF7R [1]) of 33 nM.

`CC(=O)O[C@@]12CO[C@@H]1C[C@H](OC(=O)CCc1ccc(C(=O)c3ccccc3)cc1)[C@@]1(C)C(=O)[C@H](OC(=O)CCc3ccc(C(=O)c4ccccc4)cc3)C3=C(C)[C@@H](O)C[C@@](O)([C@@H](OC(=O)c4ccccc4)[C@H]21)C3(C)C` was tested, and the Reduction (MCF7R [2]) was 99.7% and the IC50 (MCF7R [1]) was 2.6 nM.

With `CC(=O)O[C@@]12CO[C@@H]1C[C@H](OC(=O)OCC(Cl)(Cl)Cl)[C@@]1(C)C(=O)[C@H](OC(=O)OCC(Cl)(Cl)Cl)C3=C(C)[C@@H](OC(=O)CCc4ccc5ccccc5c4)C[C@@](O)([C@@H](OC(=O)c4ccccc4)[C@H]21)C3(C)C` the Reduction (MCF7R [3]) was 0% and the IC50 (MCF7R [4]) was 860 nM.

`CC(=O)O[C@@]12CO[C@@H]1C[C@H](OC(=O)CCc1ccc(C(=O)c3ccccc3)cc1)[C@@]1(C)C(=O)[C@H](OC(=O)CCc3ccc(C(=O)c4ccccc4)cc3)C3=C(C)[C@@H](OC(=O)CCc4ccc(C(=O)c5ccccc5)cc4)C[C@@](O)([C@@H](OC(=O)c4ccccc4)[C@H]21)C3(C)C` gave a Reduction (MDA-MB-435 [5]) of 0% and an IC50 (MDA-MB-435 [6]) of 860 nM.

With `CC(=O)O[C@H]1C(=O)[C@]2(C)[C@@H](OC(C)=O)C[C@H]3OC[C@@]3(OC(C)=O)[C@H]2[C@H](OC(=O)CCc2ccc3ccccc3c2)[C@]2(O)C[C@H](OC(C)=O)C(C)=C1C2(C)C` the Reduction (MDA-MB-435 [5]) was 24% and the IC50 (MDA-MB-435 [6]) was 650 nM.

With `CC(=O)O[C@H]1C(=O)[C@]2(C)[C@@H](OC(=O)/C=C/c3ccc(C(=O)c4ccccc4)cc3)C[C@H]3OC[C@@]3(OC(C)=O)[C@H]2[C@H](OC(=O)c2ccccc2)[C@]2(O)C[C@H](OC(C)=O)C(C)=C1C2(C)C` the Reduction (MDA-MB-435 [5]) was 94%, the IC50 (MDA-MB-435 [7]) was 69 nM and the Reduction (MDA-MB-435 [8]) was 92%. It also gave an IC50 (MDA-MB-435 [6]) of 52 nM and an IC50 (MCF7R [4]) of 2.6 nM.

In the case of `CC(=O)O[C@@]12CO[C@@H]1C[C@H](O)[C@@]1(C)C(=O)[C@H](OC(=O)/C=C/c3ccc(C(=O)c4ccccc4)cc3)C3=C(C)[C@@H](O)C[C@@](O)([C@@H](OC(=O)c4ccccc4)[C@H]21)C3(C)C`, the Reduction (MCF7R [2]) is reported as 95% and the IC50 (MCF7R [1]) is reported as 42 nM.

With `CC(=O)O[C@H]1C(=O)[C@]2(C)[C@@H](OC(=O)/C=C/c3ccc(C(=O)c4ccccc4)cc3)C[C@H]3OC[C@@]3(OC(C)=O)[C@H]2[C@H](OC(=O)c2ccccc2)[C@]2(O)C[C@H](O)C(C)=C1C2(C)C` the IC50 (MCF7R [4]) was 1.6 nM.

Molecule `CC(=O)O[C@H]1C(=O)[C@]2(C)[C@@H](OC(=O)CNC(=O)c3ccc4ccccc4c3)C[C@H]3OC[C@@]3(OC(C)=O)[C@H]2[C@H](OC(=O)c2ccccc2)[C@]2(O)C[C@H](O)C(C)=C1C2(C)C` has a Reduction (MCF7R [2]) of 42% and an IC50 (MCF7R [1]) of 500 nM.

Work on `CC(=O)O[C@@]12CO[C@@H]1C[C@H](OC(=O)OCC(Cl)(Cl)Cl)[C@@]1(C)C(=O)[C@H](OC(=O)OCC(Cl)(Cl)Cl)C3=C(C)[C@@H](OC(=O)/C=C/c4ccc5ccccc5c4)C[C@@](O)([C@@H](OC(=O)c4ccccc4)[C@H]21)C3(C)C` yielded a Reduction (MCF7R [3]) of 12% and an IC50 (MCF7R [4]) of 750 nM.

`CC(=O)O[C@H]1C(=O)[C@]2(C)[C@@H](OC(=O)/C=C/c3ccc4ccccc4c3)C[C@H]3OC[C@@]3(OC(C)=O)[C@H]2[C@H](OC(=O)c2ccccc2)[C@]2(O)C[C@H](OC(C)=O)C(C)=C1C2(C)C` showed a Reduction (MDA-MB-435 [5]) of 60%, a Reduction (MCF7R [3]) of 99.3% and an IC50 (MDA-MB-435 [6]) of 340 nM. It also gave an IC50 (MCF7R [4]) of 5.8 nM.

`CC(=O)O[C@@]12CO[C@@H]1C[C@H](O)[C@@]1(C)C(=O)[C@H](O)C3=C(C)[C@@H](OC(=O)/C=C/c4ccc(C(=O)c5ccccc5)cc4)C[C@@](O)([C@@H](OC(=O)c4ccccc4)[C@H]21)C3(C)C` showed a Reduction (MCF7R [2]) of 0% and an IC50 (MCF7R [1]) of 860 nM.

In the case of `CC(=O)O[C@H]1C(=O)[C@@]2(C)[C@H]([C@H](OC(=O)c3ccccc3)[C@]3(O)C[C@H](OC(=O)[C@H](O)[C@@H](NC(=O)c4ccccc4)c4ccccc4)C(C)=C1C3(C)C)[C@]1(OC(C)=O)CO[C@@H]1C[C@@H]2O` [PACLITAXEL], the Reduction (MCF7R [9]) is reported as 0%, the Reduction (MDA-MB-435 [10]) is reported as 0% and the IC50 (MCF7R [11]) is reported as 860 nM. It also gave an IC50 (MDA-MB-435 [12]) of 860 nM.

With `CC(=O)O[C@@]12CO[C@@H]1C[C@H](O)[C@@]1(C)C(=O)[C@H](O)C3=C(C)[C@@H](OC(=O)CCc4ccc5ccccc5c4)C[C@@](O)([C@@H](OC(=O)c4ccccc4)[C@H]21)C3(C)C` the Reduction (MCF7R [2]) was 37% and the IC50 (MCF7R [1]) was 540 nM.

With `CC(=O)O[C@H]1C(=O)[C@]2(C)[C@@H](OC(C)=O)C[C@H]3OC[C@@]3(OC(C)=O)[C@H]2[C@H](OC(=O)/C=C/c2ccc(C(=O)c3ccccc3)cc2)[C@]2(O)C[C@H](OC(C)=O)C(C)=C1C2(C)C` the Reduction (MDA-MB-435 [5]) was 27% and the IC50 (MDA-MB-435 [6]) was 630 nM.

`CC(=O)O[C@H]1C(=O)[C@]2(C)[C@@H](OC(=O)/C=C/c3ccc4ccccc4c3)C[C@H]3OC[C@@]3(OC(C)=O)[C@H]2[C@H](OC(=O)c2ccccc2)[C@]2(O)C[C@H](O)C(C)=C1C2(C)C` gave a Reduction (MDA-MB-435 [13]) of 50%, an IC50 (MDA-MB-435 [14]) of 430 nM and a Reduction (MCF7R [2]) of 96%. The IC50 (MCF7R [1]) was 36 nM.

`CC(=O)O[C@H]1C(=O)[C@]2(C)[C@@H](OC(=O)CCC3CCC4CCCCC4C3)C[C@H]3OC[C@@]3(OC(C)=O)[C@H]2[C@H](OC(=O)C2CCCCC2)[C@]2(O)C[C@H](O)C(C)=C1C2(C)C` (stereo partly specified) was tested, and the Reduction (MCF7R [2]) was 81% and the IC50 (MCF7R [1]) was 160 nM.

`CC(=O)O[C@@]12CO[C@@H]1C[C@H](OC(=O)/C=C/c1ccc3ccccc3c1)[C@@]1(C)C(=O)[C@H](OC(=O)CCc3ccc(C(=O)c4ccccc4)cc3)C3=C(C)[C@@H](O)C[C@@](O)([C@@H](OC(=O)c4ccccc4)[C@H]21)C3(C)C` gave a Reduction (MCF7R [2]) of 0% and an IC50 (MCF7R [1]) of 860 nM.

Work on `CC(=O)O[C@@]12CO[C@@H]1C[C@H](OC(=O)OCC(Cl)(Cl)Cl)[C@@]1(C)C(=O)[C@H](OC(=O)OCC(Cl)(Cl)Cl)C3=C(C)[C@@H](OC(=O)/C=C/c4ccc(C(=O)c5ccccc5)cc4)C[C@@](O)([C@@H](OC(=O)c4ccccc4)[C@H]21)C3(C)C` yielded a Reduction (MCF7R [3]) of 80% and an IC50 (MCF7R [4]) of 170 nM.

With `CC(=O)O[C@@]12CO[C@@H]1C[C@H](O)[C@@]1(C)C(=O)[C@H](O)C3=C(C)[C@@H](OC(=O)/C=C/c4ccc5ccccc5c4)C[C@@](O)([C@@H](OC(=O)c4ccccc4)[C@H]21)C3(C)C` the Reduction (MCF7R [2]) was 88% and the IC50 (MCF7R [1]) was 100 nM.

`CC(=O)O[C@@]12CO[C@@H]1C[C@H](OC(=O)/C=C/c1ccc3ccccc3c1)[C@@]1(C)C(=O)[C@H](OC(=O)/C=C/c3ccc4ccccc4c3)C3=C(C)[C@@H](O)C[C@@](O)([C@@H](OC(=O)c4ccccc4)[C@H]21)C3(C)C` gave a Reduction (MCF7R [2]) of 45% and an IC50 (MCF7R [1]) of 470 nM.
